Test results from ChEMBL document CHEMBL5038570, “Discovery of Novel Pyrrolo[2,3-d]pyrimidine-based Derivatives as Potent JAK/HDAC Dual Inhibitors for the Treatment of Refractory Solid Tumors” (J Med Chem, 2022).

Tests used:
[1] = target: T1, Protein deacetylase HDAC6 (Homo sapiens) (UniProt Q9UBN7); experiment: Inhibition of HDAC6 (unknown origin) at 10 nM incubated for 60 mins by microplate reader analysis relative to control
T1 sequence (whole entry): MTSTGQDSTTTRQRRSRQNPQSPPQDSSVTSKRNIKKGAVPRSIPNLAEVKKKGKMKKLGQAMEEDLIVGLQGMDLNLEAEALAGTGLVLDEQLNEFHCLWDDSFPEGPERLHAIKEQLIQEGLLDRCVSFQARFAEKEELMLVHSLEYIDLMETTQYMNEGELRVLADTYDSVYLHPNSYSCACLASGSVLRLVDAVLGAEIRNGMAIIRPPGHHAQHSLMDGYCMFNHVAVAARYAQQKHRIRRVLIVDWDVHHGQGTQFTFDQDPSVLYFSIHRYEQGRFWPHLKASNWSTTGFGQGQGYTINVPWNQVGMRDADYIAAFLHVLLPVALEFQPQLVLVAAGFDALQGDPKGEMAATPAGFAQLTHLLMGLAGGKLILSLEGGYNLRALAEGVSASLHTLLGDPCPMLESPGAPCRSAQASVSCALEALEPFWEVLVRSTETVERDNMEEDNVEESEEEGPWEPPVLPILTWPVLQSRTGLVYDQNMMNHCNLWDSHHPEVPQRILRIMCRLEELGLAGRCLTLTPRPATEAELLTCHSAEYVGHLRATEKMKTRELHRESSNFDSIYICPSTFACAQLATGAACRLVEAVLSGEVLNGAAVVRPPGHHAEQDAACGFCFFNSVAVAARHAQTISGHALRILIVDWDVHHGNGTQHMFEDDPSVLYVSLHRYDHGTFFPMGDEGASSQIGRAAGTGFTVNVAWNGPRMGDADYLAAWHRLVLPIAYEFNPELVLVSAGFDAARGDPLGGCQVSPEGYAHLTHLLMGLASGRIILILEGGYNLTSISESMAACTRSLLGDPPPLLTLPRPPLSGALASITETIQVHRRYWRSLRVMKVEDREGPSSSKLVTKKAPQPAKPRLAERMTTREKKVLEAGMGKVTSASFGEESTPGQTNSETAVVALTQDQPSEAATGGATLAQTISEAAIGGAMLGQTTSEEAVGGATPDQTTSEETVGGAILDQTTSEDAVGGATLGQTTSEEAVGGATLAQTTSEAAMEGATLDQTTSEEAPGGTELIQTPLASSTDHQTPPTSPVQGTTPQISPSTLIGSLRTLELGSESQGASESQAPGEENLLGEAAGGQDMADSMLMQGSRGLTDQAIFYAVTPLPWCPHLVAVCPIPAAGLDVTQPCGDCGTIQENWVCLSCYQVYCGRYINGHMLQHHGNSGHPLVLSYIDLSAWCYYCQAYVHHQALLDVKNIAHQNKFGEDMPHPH

[2] = target: Tyrosine-protein kinase JAK2 (Homo sapiens, UniProt O60674); experiment: Inhibition of JAK2 (unknown origin) preincubated for 60 mins followed by reagent A addition and measured after 60 mins in presence of ATP by using microplate reader method
[3] = target: Tyrosine-protein kinase JAK1 (Homo sapiens, UniProt P23458); experiment: Inhibition of JAK1 (unknown origin) preincubated for 60 mins followed by reagent A addition and measured after 60 mins in presence of ATP by using microplate reader method
Histone deacetylase 1 = Histone deacetylase 1 (Homo sapiens, UniProt Q13547); experiment: Inhibition of HDAC1 (unknown origin) incubated for 60 mins using microplate reader analysis
[4] = target: T2, Protein deacetylase HDAC6 (Homo sapiens, UniProt Q9UBN7); experiment: Inhibition of HDAC6 (unknown origin) incubated for 60 mins by microplate reader analysis
T2 sequence (Q9UBN7 whole entry): T1 sequence (whole entry)

[5] = target: T3, Tyrosine-protein kinase JAK3 (Homo sapiens, UniProt P52333); experiment: Inhibition of JAK3 (unknown origin) preincubated for 60 mins followed by reagent A addition and measured after 60 mins in presence of ATP by using microplate reader method
T3 sequence (P52333 whole entry): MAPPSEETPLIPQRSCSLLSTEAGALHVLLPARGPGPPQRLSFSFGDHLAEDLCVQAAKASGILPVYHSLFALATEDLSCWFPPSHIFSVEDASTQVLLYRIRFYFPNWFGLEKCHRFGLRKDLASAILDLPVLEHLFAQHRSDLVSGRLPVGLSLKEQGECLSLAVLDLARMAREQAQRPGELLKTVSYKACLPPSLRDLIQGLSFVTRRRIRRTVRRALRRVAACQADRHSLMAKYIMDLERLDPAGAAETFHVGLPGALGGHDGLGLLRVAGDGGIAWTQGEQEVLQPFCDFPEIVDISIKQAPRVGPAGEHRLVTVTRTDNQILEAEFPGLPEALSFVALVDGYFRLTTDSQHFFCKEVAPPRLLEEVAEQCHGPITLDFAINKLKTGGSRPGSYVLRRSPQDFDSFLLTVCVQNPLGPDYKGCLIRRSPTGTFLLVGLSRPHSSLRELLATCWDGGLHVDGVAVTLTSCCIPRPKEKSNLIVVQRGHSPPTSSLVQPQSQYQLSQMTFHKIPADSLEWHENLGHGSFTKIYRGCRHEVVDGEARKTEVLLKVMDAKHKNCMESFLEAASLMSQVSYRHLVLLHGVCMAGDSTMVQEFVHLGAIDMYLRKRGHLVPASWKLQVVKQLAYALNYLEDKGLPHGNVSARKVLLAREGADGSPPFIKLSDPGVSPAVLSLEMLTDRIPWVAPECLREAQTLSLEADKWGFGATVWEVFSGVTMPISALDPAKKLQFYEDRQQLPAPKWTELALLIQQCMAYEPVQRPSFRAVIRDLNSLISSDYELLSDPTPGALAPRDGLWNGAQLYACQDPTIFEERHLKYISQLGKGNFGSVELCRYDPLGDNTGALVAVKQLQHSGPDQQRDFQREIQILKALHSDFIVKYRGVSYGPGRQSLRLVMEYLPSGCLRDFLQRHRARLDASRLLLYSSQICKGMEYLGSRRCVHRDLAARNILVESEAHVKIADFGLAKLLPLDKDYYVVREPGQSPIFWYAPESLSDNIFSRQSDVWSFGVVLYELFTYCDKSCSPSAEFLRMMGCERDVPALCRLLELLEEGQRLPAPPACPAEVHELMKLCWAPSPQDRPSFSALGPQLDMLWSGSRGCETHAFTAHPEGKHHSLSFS

[6] = target: Non-receptor tyrosine-protein kinase TYK2 (Homo sapiens, UniProt P29597); experiment: Inhibition of TYK2 (unknown origin) incubated for 40 min in presence of ATP by microplate reader analysis
4T1 = experiment: cells; format: functional, cell-based; conditions: Mus musculus, 4T1, 72 h
MDA-MB-231 = experiment: cells; format: functional, cell-based; conditions: Homo sapiens, MDA-MB-231, 72 h
BT-549 = experiment: cells; format: functional, cell-based; conditions: Homo sapiens, BT-549, 72 h
CAL-51 = experiment: cells; format: functional, cell-based; conditions: Homo sapiens, CAL-51, 72 h
MDA-MB-468 = experiment: cells; format: functional, cell-based; conditions: Homo sapiens, MDA-MB-468, 72 h

Tyrosine-protein kinase JAK2, sequence (O60674 whole entry): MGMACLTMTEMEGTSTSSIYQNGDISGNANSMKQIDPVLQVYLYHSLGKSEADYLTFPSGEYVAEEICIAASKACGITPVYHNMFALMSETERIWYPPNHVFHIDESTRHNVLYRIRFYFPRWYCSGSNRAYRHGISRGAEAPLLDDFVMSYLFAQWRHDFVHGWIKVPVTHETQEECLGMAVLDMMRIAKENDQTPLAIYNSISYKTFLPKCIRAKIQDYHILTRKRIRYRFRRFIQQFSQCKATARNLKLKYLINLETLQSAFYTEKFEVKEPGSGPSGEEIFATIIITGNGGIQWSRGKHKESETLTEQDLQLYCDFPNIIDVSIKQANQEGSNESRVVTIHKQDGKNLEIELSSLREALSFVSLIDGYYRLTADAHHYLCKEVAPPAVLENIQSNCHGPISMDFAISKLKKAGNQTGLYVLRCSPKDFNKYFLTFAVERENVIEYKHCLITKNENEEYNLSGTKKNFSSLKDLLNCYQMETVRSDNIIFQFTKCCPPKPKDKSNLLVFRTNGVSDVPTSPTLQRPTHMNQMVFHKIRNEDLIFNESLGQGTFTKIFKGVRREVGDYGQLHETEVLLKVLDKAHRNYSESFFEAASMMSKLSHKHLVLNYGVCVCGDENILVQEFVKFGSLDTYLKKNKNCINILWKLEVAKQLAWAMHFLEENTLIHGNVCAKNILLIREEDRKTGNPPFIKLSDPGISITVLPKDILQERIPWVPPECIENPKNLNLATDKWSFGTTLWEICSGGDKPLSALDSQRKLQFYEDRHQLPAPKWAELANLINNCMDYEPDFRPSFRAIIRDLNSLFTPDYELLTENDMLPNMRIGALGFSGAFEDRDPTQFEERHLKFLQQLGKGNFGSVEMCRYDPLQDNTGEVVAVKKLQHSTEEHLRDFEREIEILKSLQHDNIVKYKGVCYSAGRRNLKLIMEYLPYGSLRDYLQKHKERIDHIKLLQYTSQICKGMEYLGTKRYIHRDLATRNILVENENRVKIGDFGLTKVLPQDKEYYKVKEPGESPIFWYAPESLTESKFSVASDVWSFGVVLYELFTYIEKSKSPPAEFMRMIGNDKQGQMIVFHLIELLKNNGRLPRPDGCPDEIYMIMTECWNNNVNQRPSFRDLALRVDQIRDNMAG
Tyrosine-protein kinase JAK1, sequence (P23458 whole entry): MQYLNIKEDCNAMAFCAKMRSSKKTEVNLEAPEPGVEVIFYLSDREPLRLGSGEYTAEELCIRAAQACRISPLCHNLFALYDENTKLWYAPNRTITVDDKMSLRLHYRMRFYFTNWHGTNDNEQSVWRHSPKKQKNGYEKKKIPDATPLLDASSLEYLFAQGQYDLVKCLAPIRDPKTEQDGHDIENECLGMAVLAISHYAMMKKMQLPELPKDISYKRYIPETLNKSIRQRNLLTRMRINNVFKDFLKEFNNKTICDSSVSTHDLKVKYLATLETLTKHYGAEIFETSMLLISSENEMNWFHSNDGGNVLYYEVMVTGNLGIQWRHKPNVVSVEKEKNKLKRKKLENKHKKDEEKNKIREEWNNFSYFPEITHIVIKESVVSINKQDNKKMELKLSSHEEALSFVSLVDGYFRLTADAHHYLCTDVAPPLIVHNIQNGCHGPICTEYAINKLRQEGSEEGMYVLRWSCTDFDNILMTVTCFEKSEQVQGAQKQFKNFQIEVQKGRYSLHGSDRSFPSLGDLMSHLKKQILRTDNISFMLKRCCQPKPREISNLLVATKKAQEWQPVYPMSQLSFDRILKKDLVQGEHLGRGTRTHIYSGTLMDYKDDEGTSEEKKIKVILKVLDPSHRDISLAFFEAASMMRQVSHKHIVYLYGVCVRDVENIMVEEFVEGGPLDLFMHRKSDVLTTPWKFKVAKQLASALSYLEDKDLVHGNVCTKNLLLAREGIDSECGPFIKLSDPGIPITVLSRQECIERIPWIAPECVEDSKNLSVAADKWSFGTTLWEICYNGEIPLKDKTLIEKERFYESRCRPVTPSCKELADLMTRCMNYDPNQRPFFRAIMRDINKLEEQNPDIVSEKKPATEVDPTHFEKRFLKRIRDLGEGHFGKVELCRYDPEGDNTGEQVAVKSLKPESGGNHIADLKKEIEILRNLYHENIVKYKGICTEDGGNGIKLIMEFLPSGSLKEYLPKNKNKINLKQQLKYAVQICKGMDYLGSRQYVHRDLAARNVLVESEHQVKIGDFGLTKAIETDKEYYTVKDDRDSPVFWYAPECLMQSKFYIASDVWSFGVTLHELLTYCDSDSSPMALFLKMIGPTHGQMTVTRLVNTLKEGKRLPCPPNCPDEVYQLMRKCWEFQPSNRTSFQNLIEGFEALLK
Non-receptor tyrosine-protein kinase TYK2, sequence (P29597 whole entry): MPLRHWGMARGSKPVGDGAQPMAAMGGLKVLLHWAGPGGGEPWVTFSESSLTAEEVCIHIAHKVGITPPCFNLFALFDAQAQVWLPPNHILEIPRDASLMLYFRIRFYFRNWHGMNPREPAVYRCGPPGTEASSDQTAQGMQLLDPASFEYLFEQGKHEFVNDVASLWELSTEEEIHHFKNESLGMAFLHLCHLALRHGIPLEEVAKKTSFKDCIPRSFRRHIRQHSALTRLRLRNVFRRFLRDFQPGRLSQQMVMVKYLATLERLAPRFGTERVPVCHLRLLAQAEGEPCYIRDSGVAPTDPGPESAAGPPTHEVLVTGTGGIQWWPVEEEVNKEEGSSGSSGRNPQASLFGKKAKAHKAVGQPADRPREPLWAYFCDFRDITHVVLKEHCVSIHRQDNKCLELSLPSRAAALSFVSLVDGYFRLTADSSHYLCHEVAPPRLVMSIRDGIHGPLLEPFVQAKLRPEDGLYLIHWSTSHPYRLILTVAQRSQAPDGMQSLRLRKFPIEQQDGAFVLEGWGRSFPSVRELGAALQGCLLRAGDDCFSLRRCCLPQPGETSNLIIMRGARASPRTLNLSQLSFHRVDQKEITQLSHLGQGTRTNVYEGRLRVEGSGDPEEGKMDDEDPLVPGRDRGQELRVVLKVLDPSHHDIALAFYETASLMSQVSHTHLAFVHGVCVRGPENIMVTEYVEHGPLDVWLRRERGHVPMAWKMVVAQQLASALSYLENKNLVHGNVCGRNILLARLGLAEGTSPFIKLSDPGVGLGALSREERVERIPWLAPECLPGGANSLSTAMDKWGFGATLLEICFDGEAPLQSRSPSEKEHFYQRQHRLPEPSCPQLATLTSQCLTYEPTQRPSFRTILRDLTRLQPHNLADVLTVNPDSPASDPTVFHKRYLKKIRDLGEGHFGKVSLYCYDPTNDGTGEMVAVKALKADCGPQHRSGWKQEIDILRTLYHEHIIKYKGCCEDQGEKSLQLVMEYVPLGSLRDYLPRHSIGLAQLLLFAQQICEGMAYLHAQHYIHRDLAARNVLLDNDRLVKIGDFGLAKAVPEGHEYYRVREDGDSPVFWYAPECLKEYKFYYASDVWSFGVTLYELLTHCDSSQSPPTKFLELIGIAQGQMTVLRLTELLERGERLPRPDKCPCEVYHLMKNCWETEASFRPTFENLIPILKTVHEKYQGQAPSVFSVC
Histone deacetylase 1, sequence (Q13547 whole entry): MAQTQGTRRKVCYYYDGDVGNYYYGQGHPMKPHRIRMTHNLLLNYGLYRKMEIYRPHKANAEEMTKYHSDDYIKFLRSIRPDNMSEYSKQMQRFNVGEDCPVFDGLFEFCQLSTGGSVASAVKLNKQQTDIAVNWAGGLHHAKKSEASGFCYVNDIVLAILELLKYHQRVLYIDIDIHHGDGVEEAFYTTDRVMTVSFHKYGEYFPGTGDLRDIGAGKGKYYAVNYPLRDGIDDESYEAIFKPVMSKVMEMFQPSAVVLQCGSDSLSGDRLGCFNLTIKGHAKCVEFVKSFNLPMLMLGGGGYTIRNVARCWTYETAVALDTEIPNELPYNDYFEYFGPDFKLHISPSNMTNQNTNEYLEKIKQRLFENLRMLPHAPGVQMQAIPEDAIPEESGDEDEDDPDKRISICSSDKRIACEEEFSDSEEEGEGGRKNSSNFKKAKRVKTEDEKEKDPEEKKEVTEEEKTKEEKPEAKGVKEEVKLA

SMILES | inhibition [1] [%] | IC50 [2] [nM] | IC50 [4] [nM] | other results
Cc1ccc(Cn2ccc3cnc(Nc4cnn(CCCCCC(=O)NO)c4)nc32)cc1 | 34 | > 100 |  | 
O=C(CCCCCCn1cc(Nc2nc(Nc3cccc(Cl)c3)c3ccccc3n2)cn1)NO |  | 9400 |  | 
COc1cccc(Cn2ccc3cnc(Nc4cnn(CCCCCC(=O)NO)c4)nc32)c1 |  | 124 | 37.6 | 
O=C(CCCCCCn1cc(Nc2ncc3ccn(Cc4ccccc4)c3n2)cn1)NO |  | 51 | 12.5 | 
O=C(CCCCCCn1cc(Nc2nccc(-c3cc(F)cc(F)c3)n2)cn1)NO |  | 2660 |  | 
COc1ccc(Cn2ccc3cnc(Nc4cnn(CCCCCC(=O)NO)c4)nc32)cc1 | 46 | > 100 |  | 
O=C(CCCCCCn1cc(Nc2ncc3ccn(CC4CCCCC4)c3n2)cn1)NO |  | 69 | 88 | 
O=C(CCCCCn1cc(Nc2ncc3ccn(Cc4ccccc4)c3n2)cn1)NO |  | 33 | 13.8 | 
O=C(CCCCCCn1cc(Nc2ncc3ccn(-c4ccc(F)cc4)c3n2)cn1)NO |  | 32.9 | 21.6 | 
O=C(CCCCCCn1cc(Nc2ncc3ccn(CC4CC4)c3n2)cn1)NO |  | > 100 | 16 | 
Cc1ccc(Cn2ccc3cnc(Nc4cnn(CCCCCCC(=O)NO)c4)nc32)cc1 | 38 | > 100 |  | 
O=C(CCCCCn1cc(Nc2ncc3ccn(Cc4ccc(Cl)cc4)c3n2)cn1)NO | 38 | > 100 |  | 
O=C(CCCCCCn1cc(Nc2ncc3ccn(Cc4ccc(F)cc4)c3n2)cn1)NO | 62 | > 100 |  | 
O=C(CCCCCn1cc(Nc2ncc3ccn(CCc4ccccc4)c3n2)cn1)NO | 41 | > 100 |  | 
O=C(CCCCCCn1cc(Nc2ncc3ccn(Cc4ccc(Cl)cc4)c3n2)cn1)NO | 39 | > 100 |  | 
O=C(CCCCCn1cc(Nc2ncc3ccn(Cc4ccc(F)cc4)c3n2)cn1)NO | 46 | > 100 |  | 
O=C(CCCCCCn1cc(Nc2ncc3ccn(Cc4cccc(Cl)c4)c3n2)cn1)NO |  | 39.8 | 36.8 | 
COc1ccc(Cn2ccc3cnc(Nc4cnn(CCCCCCC(=O)NO)c4)nc32)cc1 | 40 | > 100 |  | 
O=C(CCCCCCn1cc(Nc2ncc3ccn(-c4ccc(Cl)cc4)c3n2)cn1)NO |  | 48.2 | 33.4 | 
O=C(CCCCCCn1cc(Nc2ncc3ccn(CCc4ccccc4)c3n2)cn1)NO | 49 | > 100 |  | 
O=C(CCCCCCn1cc(Nc2ncc3ccn(-c4ccc(Br)cc4)c3n2)cn1)NO |  | 54.8 | 20.2 | 
COc1cccc(Cn2ccc3cnc(Nc4cnn(CCCCCCC(=O)NO)c4)nc32)c1 |  | 209 | 28.8 | 
O=C(CCCCCCn1cc(Nc2ncc3ccn(C4CCCC4)c3n2)cn1)NO |  | > 100 | 22 | 

Molecules with a lower IC50 [2], results first:

inhibition [1] [%] | IC50 [2] [nM] | IC50 [4] [nM] | SMILES | other results
 | 16.8 | 13.1 | O=C(CCCCCCn1cc(Nc2ncc3ccn(-c4ccccc4)c3n2)cn1)NO | IC50 [3]: 19.6 nM; IC50 (Histone deacetylase 1): 52.1 nM; IC50 [5]: 81.2 nM; IC50 [6]: 23.5 nM
 | 30.8 | 41.5 | O=C(CCCCCCn1cc(Nc2ncc3ccn(Cc4ccccc4Cl)c3n2)cn1)NO | 
 | 10 | 15.3 | O=C(CCCCCn1cc(Nc2ncc3ccn(Cc4ccccc4F)c3n2)cn1)NO | IC50 [3]: 32.3 nM; IC50 (Histone deacetylase 1): 145 nM; IC50 [5]: 18.4 nM; IC50 [6]: 13.3 nM
 | 17.5 | 11.3 | O=C(CCCCCn1cc(Nc2ncc3ccn(-c4ccc(Br)cc4)c3n2)cn1)NO | 
 | 15.7 | 5.9 | CS(=O)(=O)c1ccc(-n2ccc3cnc(Nc4cnn(CCCCCCC(=O)NO)c4)nc32)cc1 | 
 | 9.8 | 10.8 | CS(=O)(=O)c1ccc(-n2ccc3cnc(Nc4cnn(CCCCCC(=O)NO)c4)nc32)cc1 | 
 | 24.8 | 45 | O=C(CCCCCn1cc(Nc2ncc3ccn(Cc4ccccc4Cl)c3n2)cn1)NO | 
 | 17.7 | 34.4 | O=C(CCCCCn1cc(Nc2ncc3ccn(Cc4cccc(Cl)c4)c3n2)cn1)NO | 
 | 15.7 | 14.7 | O=C(CCCCCCn1cc(Nc2ncc3ccn(Cc4cccc(F)c4)c3n2)cn1)NO | IC50 (4T1): 3720 nM; IC50 [3]: 19.9 nM; IC50 (Histone deacetylase 1): 92.1 nM; IC50 (MDA-MB-231): 3940 nM; IC50 [5]: 16.1 nM; IC50 (BT-549): 3020 nM; IC50 [6]: 21.7 nM; IC50 (CAL-51): 1280 nM; IC50 (MDA-MB-468): 2450 nM
 | 4.1 | 13.7 | O=C(CCCCCn1cc(Nc2ncc3ccn(Cc4cccc(F)c4)c3n2)cn1)NO | IC50 [3]: 8.7 nM; IC50 (Histone deacetylase 1): 173 nM; IC50 [5]: 12.6 nM
